This note sets out measurements from patent US20240425529A1, “BORIC ACID DERIVATIVE” (SHOUYAO HOLDINGS (BEIJING) CO., LTD., priority 2021, published 2024).

Experiment [1] addresses T1, LMP7 (Homo sapiens, UniProt P28062).
T1 construct: using MOLT-4 cell lysate as the enzyme source of LMP7; endogenous in cells; host or cells: MOLT-4 (human acute lymphoblastic leukemia cells)
Description: Enzymatic inhibitory activity on LMP7 (MOLT-4 cell lysate, Ac-ANW-AMC substrate). The format is biochemical. The following applies: 1 hour pre-incubation. An excerpt:
LMP7 is a catalytic subunit of immunoproteasomes. In this experiment, an enzymatic detection platform was established using its hydrolytic enzyme activity and used for compound activity detection. Using Ac-ANW-AMC (Bonston Biochem, Cat #S-320) as a substrate for LMP7, the amount of fluorescent group AMC (7-amino-4-methylcoumarin) released after hydrolysis can reflect the enzymatic activity. MOLT-4 cells are human acute lymphoblastic leukemia cells and have been identified as cells with high expression of LMP7. We established an enzymatic detection method for compound inhibition on LMP7 using MOLT-4 cell lysate as the enzyme source of LMP7 and detected the compound inhibitory activity (half inhibitory concentration, IC50).
(§1) MOLT-4 cells were cultured in a 75 cm^2 cell culture flask (Corning) (37° C., 95% air, and 5% CO2) with RPMI-1640 (Biological Industries) medium containing 10% fetal bovine serum (Biological Industries) and 1% Pen Strep (Gibco) and passaged 2-3 times one week. 1×10^7 MOLT-4 cells were collected, resuspended in 1 ml of PBS (Solarbio), and centrifuged at 3000 rpm for 5 minutes. The supernatant was aspirated off. The cells were resuspended in 500 μl of lysis buffer (20 mM Tris, pH 8.0, 5 mM EDTA, plus Protease inhibitor (1:1000) and Phosphatase Inhibitor (1:100) when used) and left on ice for 30 minutes. The cells were broken by supersonic technique, 0.5 S on, 0.5 S off, for 2.5 S. The centrifuge was performed at 12000 rpm, 4° C. for 10 minutes. The supernatant was the cell lysate and protein quantification was performed by using the BCA method (Thermo, #23225).
Compounds were diluted in a 5-fold gradient with 100% DMSO for a total of 9 concentrations: 2 W for each concentration was added to a 48-μl reaction buffer (20 mM Tris, pH 8.0, 0.5 mM EDTA) and mixed well as 4* compound (final concentrations: 2000, 400, 80, 16, 3.2, 0.64, 0.128, 0.0256, and 0 nM) for later use. A reaction buffer was used to prepare 4* MOLT-4 cell lysate at a final concentration of 20 ng/μl and 2*Ac-ANW-AMC at a final concentration of 100 µM. 5 μl of 4* compound was added to a 384-well plate (OptiPlate-384, purchased from PerkinElmer), added with 5 W of 4* cell lysate, centrifuged, and reacted in an incubator at 23° C. for 1 hour. 10 W of 2* Ac-ANW-AMC was added and the reaction was started by centrifugation at 23° C. in the dark for 2 hours. After completion of the reaction, the signal value (excitation wavelength 345 nm/emission wavelength 445 nm) was read on the CLARIO star^Plus (purchased from BMG LRBTECH). Enzyme activity was determined at 9 concentrations for each compound, and data were processed using the GraphPad Prism software to calculate the half inhibitory concentration of the compound on LMP7, i.e. the IC50 value.

Experiment [2] deals with T2, β5 (Homo sapiens, UniProt P28074).
T2 construct: using HEK-293 cell lysate as the enzyme source of D5; endogenous in cells; host or cells: HEK-293 (human embryonic kidney cells)
The experiment in a line: Enzymatic inhibitory activity on β5 (HEK-293 cell lysate, Ac-WLA-AMC substrate). To be noted: 1 hour pre-incubation. The format is biochemical.
From the text: β5 is a catalytic subunit of immunoproteasomes. In this experiment, an enzymatic detection platform was established using its hydrolytic enzyme activity and used for compound activity detection. Using Ac-WLA-AMC (Bonston Biochem, Cat #5-330) as a substrate for D5, the amount of fluorescent group AMC (7-amino-4-methylcoumarin) released after hydrolysis can reflect the enzymatic activity. […] We established an enzymatic detection method for compound inhibition on D5 using HEK-293 cell lysate as the enzyme source of D5 and detected the compound inhibitory activity (half inhibitory concentration, IC50). The enzymatic inhibitory activity of compounds against D5 was used as a measure index of compound selectivity.
as §1, with “HEK-293” for “MOLT-4”, “DMEM” for “RPMI-1640”, “performed” for “performed by”
Compounds were diluted in a 5-fold gradient with 100% DMSO for a total of 9 concentrations. 2 W for each concentration was added to a 48-μl reaction buffer (20 mM Tris, pH 8.0, 0.5 mM EDTA) and mixed well as 4* compound (final concentrations: 100000, 20000, 4000, 800, 160, 32, 6.4, 1.28, and 0 nM) for later use. A reaction buffer was used to prepare 4*HEK-293 cell lysate at a final concentration of 25 ng/μl and 2*Ac-WLA-AMC at a final concentration of 20 μM. 5 W of 4* compound was added to a 384-well plate (OptiPlate-384, purchased from PerkinElmer), added with 5 W of 4*HEK-293 cell lysate, centrifuged, and reacted in an incubator at 23° C. for 1 hour. 10 W of 2* Ac-WLA-AMC was added and the reaction was started by centrifugation at 23° C. in the dark for 2 hours. After completion of the reaction, the signal value (excitation wavelength 345 nm/emission wavelength 445 nm) was read on the CLARIO star^Plus (purchased from BMG LRBTECH). Enzyme activity was determined at 9 concentrations for each compound, and data were processed using the GraphPad Prism software to calculate the half inhibitory concentration of the compound on D5, i.e. the IC50 value.

Experiment [3] has as its target T1, LMP7. The experiment in a line: Cytological inhibitory activity on LMP7 in MOLT-4 cells. Type of experiment: cell-based. To be noted: incubation for 2 hours with compound, read-out: Cytological activity data LMP7 Activity (MOLT-4Cell). The protocol: MOLT-4 are human acute lymphoblastic leukemia cells and have been identified as cells with high expression of LMP7. In this experiment, the compounds were pre-incubated with MOLT-4, and Ac-ANW-AMC (BonstonBiochem, Cat #S-320) was used as the substrate of LMP7 to establish the detection method for the enzymatic activity of LMP7 in cells and detect the compound inhibitory activity (half inhibitory concentration, IC50).
Cells were plated in a 24-well plate (Corning) at a concentration of 1.5×10^5/ml per well. The next day compounds were prepared and diluted in a 5-fold gradient from 2 mM in 100% DMSO for a total of 8 concentrations. 2 μl for each concentration of the compound was added to a 1-ml cell culture medium, supplemented with 1 ml of RPMI-1640 only (final FBS concentration 5%, v/v). The compounds were mixed with the cells. After incubation for 2 hours in the incubator, the cells were centrifuged at 2000 rpm for 8 minutes to discard the supernatant. The cells were washed once with 2 ml PBS (Solarbio), and centrifuged again to discard the supernatant. The cells were resuspended in 100 μl of lysis buffer (20 mM Tris, pH 8.0, 5 mM EDTA, plus Protease inhibitor (1: 100) and Phosphatase Inhibitor (1:100) when used) and left in a 4° C. refrigerator for 45 minutes.
After 2 min. of centrifuge at 2000 rpm, the lysate was transferred from the 24-well plate to a 96-well plate, and centrifuged at 2000 rpm, 4° C., for 15 min. The supernatant was the lysate. Protein quantification was performed using the BCA method (Thermo, #23225). A 2* lysate was prepared with the reaction buffer (20 mM Tris, pH 8.0, 0.5 mM EDTA) at a final concentration of 20 ng/μl. 2* Ac-ANW-AMC was prepared with the reaction buffer at a final concentration of 100 μM. 10 µl of 2* lysate was added to a 384-well plate (OptiPlate-384, purchased from PerkinElmer), and added with 10 W of 2* Ac-ANW-AMC. The reaction was started by centrifugation at 23° C. in the dark for 1 hour. After completion of the reaction, the signal value (excitation wavelength 345 nm/emission wavelength 445 nm) was read on the CLARIO starPlus (purchased from BMG LRBTECH). Enzyme activity was determined at 8 concentrations for each compound, and data were processed using the GraphPad Prism software to calculate the half inhibitory concentration of the compound on LMP7 hydrolase in MOLT-4 cells, i.e. the IC50 value.

`COc1ccc2nc(NC(=O)C(=O)N[C@@H](Cc3coc4ccccc34)B(O)O)sc2c1` [Ex. 26, (R)-(2-(benzofuran-3-yl)-1-(2-oxo-2-((6-methoxybenzo[d]thiazol-2-yl)amino)acetamido)ethyl)boronic acid]: the IC50 in experiment [1] came to 4.86 nM; in experiment [2], 19.4 nM; in experiment [3], 0.73 nM.
For `Cn1ccnc1NC(=O)C(=O)N[C@@H](Cc1coc2ccccc12)B(O)O` [Ex. 37, (R)-(2-(benzofuran-3-yl)-1-(2-oxo-2-((1-methyl-1H-imidazol-2-yl)amino)acetamido)ethyl)boronic acid], in that order: 5.93 nM, 264 nM and 111 nM.
For `CC1(C)[C@@H]2C[C@H]3OB([C@H](Cc4coc5ccccc45)NC(=O)C(=O)N[C@@H]4C[C@H]5CC[C@@H]4O5)O[C@@]3(C)[C@H]1C2` [Ex. 51, ((R)-1-(2-(((1S,2R,4R)-7-oxabicyclo[2.2.1]heptan-2-yl)amino)-2-oxoacetamido)-2-(benzofuran-3-yl)ethyl)boronic acid (1S,2S,3R,5S)-(+)-pinane-2,3-diol ester] the same measures were 3.08 nM, 74.6 nM and 3.88 nM.
As to `CC1(C)[C@@H]2C[C@H]3OB([C@H](Cc4coc5ccccc45)NC(=O)C(=O)Nc4ccccn4)O[C@@]3(C)[C@H]1C2` [Ex. 23, (R)-(2-(benzofuran-3-yl)-1-(2-oxo-2-(pyridin-2-ylamino)acetamido)ethyl) boronic acid (1S,2S,3R,5S)-(+)-pinane-2,3-diol ester], the figures for the IC50 in experiment [1], in experiment [2] and in experiment [3] were 3.81 nM, 126 nM and 1.65 nM, respectively.
Regarding `CN(C)c1ccnc(NC(=O)C(=O)N[C@@H](Cc2coc3ccccc23)B(O)O)c1` [Ex. 50, (R)-(2-(benzofuran-3-yl)-1-(2-oxo-2-((4-dimethylaminopyridin-2-yl)amino)acetamido)ethyl)boronic acid], the IC50 stood at 5.96 nM in experiment [1], 357 nM in experiment [2] and 7.91 nM in experiment [3].
For `Cn1cccc(NC(=O)C(=O)N[C@@H](Cc2coc3ccccc23)B2O[C@@H]3C[C@@H]4C[C@@H](C4(C)C)[C@]3(C)O2)c1=O` [Ex. 57, (R)-(2-(benzofuran-3-yl)-1-(2-oxo-2-((1-methyl-2-oxo-1,2-dihydropyridin-3-yl)amino)acetamido)ethyl)boronic acid (1S,2S,3R,5S)-(+)-pinane-2,3-diol ester], in that order: 1.32 nM, 140 nM and 4.03 nM.
As to `O=C(Nc1ccc(F)cc1F)C(=O)N[C@@H](Cc1coc2ccccc12)B(O)O` [Ex. 55, (R)-(2-(benzofuran-3-yl)-1-(2-oxo-2-(2,4-difluorophenylamino)acetamido)ethyl)boronic acid], the results for the IC50 in experiment [1], in experiment [2] and in experiment [3] were 1.43 nM, 54.6 nM and 6.84 nM, respectively.
`CC1(C)[C@@H]2C[C@H]3OB([C@H](Cc4coc5ccccc45)NC(=O)C(=O)Nc4ccc(F)cc4F)O[C@@]3(C)[C@H]1C2` [Ex. 54, (R)-(2-(benzofuran-3-yl)-1-(2-oxo-2-(2,4-difluorophenylamino)acetamido)ethyl)boronic acid (1S,2S,3R,5S)-(+)-pinane-2,3-diol ester]: the IC50 in experiment [1] is 0.89 nM; in experiment [2] it was 23.7 nM; in experiment [3], 5.33 nM.
Turning to `O=C(O)CC1(CC(=O)O)OB([C@H](Cc2coc3ccccc23)NC(=O)C(=O)Nc2cnccn2)OC1=O` [Ex. 18, (R)-2,2′-(2-(2-(benzofuran-3-yl)-1-(2-oxo-2-(pyrazin-2-ylamino)acetamido)ethyl)-5-oxo-1,3,2-dioxaborolane-4,4-diyl)diacetic acid], the IC50 amounted to 2.42 nM in experiment [1], 34.1 nM in experiment [2] and 1.26 nM in experiment [3].
For `CC1(C)[C@@H]2C[C@H]3OB([C@H](Cc4coc5ccccc45)NC(=O)C(=O)Nc4cnccn4)O[C@@]3(C)[C@H]1C2` [Ex. 17, (R)-(2-(benzofuran-3-yl)-1-(2-oxo-2-(pyrazin-2-ylamino)acetamido)ethyl) boronic acid (1S,2S,3R,5S)-(+)-pinane-2,3-diol ester], in that order: 2.6 nM, 30.1 nM and 0.8 nM.
